Experimental data reported in ChEMBL document CHEMBL3792365, “Dioxol and dihydrodioxin analogs of 2- and 3-phenylacetonitriles as potent anti-cancer agents with nanomolar activity against a variety of human cancer cells” (2016).

Columns and labels:
Assay type in all cases: functional
[1] = Growth inhibition of human SNB75 cells at 10 uM after 48 hrs by sulforhodamine B assay; settings: SNB-75, 48 h, values are per cent of control
Malme-3M = assay: Growth inhibition of human MALME-3M cells at 10 uM after 48 hrs by sulforhodamine B assay; settings: values are per cent of control
SK-MEL-2 = assay: Growth inhibition of human SK-MEL-2 cells at 10 uM after 48 hrs by sulforhodamine B assay; settings: SK-MEL-2, 48 h, values are per cent of control
SK-MEL-28 = assay: Growth inhibition of human SK-MEL-28 cells at 10 uM after 48 hrs by sulforhodamine B assay; settings: SK-MEL-28, 48 h, values are per cent of control
[2] = Growth inhibition of human UACC257 cells at 10 uM after 48 hrs by sulforhodamine B assay; settings: UACC-257, 48 h, values are per cent of control
[3] = Growth inhibition of human IGROV1 cells at 10 uM after 48 hrs by sulforhodamine B assay; settings: IGROV-1, 48 h, values are per cent of control
[4] = Growth inhibition of human OVCAR3 cells at 10 uM after 48 hrs by sulforhodamine B assay; settings: OVCAR-3, 48 h, values are per cent of control
786-0 = assay: Growth inhibition of human 786-0 cells at 10 uM after 48 hrs by sulforhodamine B assay; settings: 786-0, 48 h, values are per cent of control
[5] = Growth inhibition of human RXF393 cells at 10 uM after 48 hrs by sulforhodamine B assay; settings: RXF 393, 48 h, values are per cent of control
[6] = Growth inhibition of human UO31 cells at 10 uM after 48 hrs by sulforhodamine B assay; settings: UO-31, 48 h, values are per cent of control
[7] = Growth inhibition of human PC3 cells at 10 uM after 48 hrs by sulforhodamine B assay; settings: PC-3, 48 h, values are per cent of control
MCF7 = assay: Growth inhibition of human MCF7 cells at 10 uM after 48 hrs by sulforhodamine B assay; settings: MCF7, 48 h, values are per cent of control
CCRF-CEM = assay: Growth inhibition of human CCRF-CEM cells at 10 uM after 48 hrs by sulforhodamine B assay; settings: values are per cent of control
[8] = Growth inhibition of human HL-60(TB) cells at 10 uM after 48 hrs by sulforhodamine B assay; settings: HL-60, 48 h, values are per cent of control
[9] = Growth inhibition of human MOLT4 cells at 10 uM after 48 hrs by sulforhodamine B assay; settings: MOLT-4, 48 h, values are per cent of control
[10] = Growth inhibition of human RPMI8226 cells at 10 uM after 48 hrs by sulforhodamine B assay; settings: RPMI-8226, 48 h, values are per cent of control
[11] = Growth inhibition of human HOP62 cells at 10 uM after 48 hrs by sulforhodamine B assay; settings: HOP-62, 48 h, values are per cent of control
[12] = Growth inhibition of human HOP92 cells at 10 uM after 48 hrs by sulforhodamine B assay; settings: HOP-92, 48 h, values are per cent of control
[13] = Growth inhibition of human HCC2998 cells at 10 uM after 48 hrs by sulforhodamine B assay; settings: HCC 2998, 48 h, values are per cent of control

SMILES	growth, % of control at 10 µM [1]	growth, % of control at 10 µM (Malme-3M)	growth, % of control at 10 µM (SK-MEL-2)	growth, % of control at 10 µM (SK-MEL-28)	growth, % of control at 10 µM [2]	growth, % of control at 10 µM [3]	growth, % of control at 10 µM [4]	growth, % of control at 10 µM (786-0)	growth, % of control at 10 µM [5]	growth, % of control at 10 µM [6]	growth, % of control at 10 µM [7]	growth, % of control at 10 µM (MCF7)	growth, % of control at 10 µM (CCRF-CEM)	growth, % of control at 10 µM [8]	growth, % of control at 10 µM [9]	growth, % of control at 10 µM [10]	growth, % of control at 10 µM [11]	growth, % of control at 10 µM [12]	growth, % of control at 10 µM [13]
COc1ccc(/C=C(\C#N)c2ccc3c(c2)OCO3)cc1OC	87.5%	103%	102%	116%	118%	96.9%	109%	103%	111%	88%	100%	87.2%	89.4%	72%	85.2%	96.9%	97.6%	110%	106%
N#C/C(=C\c1ccsc1)c1ccc2c(c1)OCO2	67.7%	114%	106%	113%	110%	96.4%	103%	96.7%	101%	84.6%	110%	87.1%	104%	83.5%	79.7%	104%	94.5%		106%
N#C/C(=C\c1cc(F)cc(F)c1)c1ccc2c(c1)OCO2	112%	116%	119%	115%	104%	121%	109%	94.6%	98.5%	104%	101%	88.4%	97.7%	108%	83.1%	94.7%	91.9%	125%	94.6%
COc1cc(/C=C(\C#N)c2ccc3c(c2)OCO3)cc(OC)c1	68.9%	95.7%	94.4%	106%	97%	87.1%	103%	94.5%	106%	78.6%	97.3%	85.5%	83.4%	64.5%	67.2%	89.4%	92.3%		102%
COc1ccc(/C(C#N)=C/c2ccc3c(c2)OCO3)cc1	80.8%	79.9%	90.1%	81.4%		84.6%	88.7%	95.4%	91.4%	72.8%	81%	60.8%	72.1%	66.6%	70.4%	64.7%	86.6%	93%	80%
N#C/C(=C\c1c(Cl)cccc1Cl)c1ccc2c(c1)OCO2	51.5%	56.1%	90.6%	104%	99.8%	85.6%	97.7%	95.6%	96.1%	80.1%	94.3%	93.7%	86.7%	75%	61.2%	84.4%	90.6%		89.9%
N#C/C(=C\c1cc(Br)cc(Br)c1)c1ccc2c(c1)OCO2	77.3%	84%	88.7%	98.9%	100%	85.1%	103%	98.2%	95.5%	76.5%	89.2%	82.3%	75.4%	62.9%	66.6%	76.6%	104%	113%	90.7%
N#C/C(=C\c1ccc2ccccc2n1)c1ccc2c(c1)OCO2	5.4%	68.3%	87.1%	88.6%		55.1%	63%	51.9%	80%	72.8%	77.5%	84.6%	89.7%	87.1%	78.5%	84.9%	69.7%	90.2%	95.1%
COc1ccc(/C=C(\C#N)c2ccc3c(c2)OCO3)c(Cl)c1OC	73.5%	79.1%	80.1%	91%	106%	77.1%	100%	84.8%	78.3%	74.9%		71.6%					87.2%		76.9%
N#C/C(=C\c1ccc(Cl)c(Cl)c1)c1ccc2c(c1)OCO2	20.3%		89.7%	105%	86.3%	67.2%	97.7%	72.4%	94.4%	73.7%	91.5%	79.9%	91.9%	83.1%	72.2%	80.1%	88%		92.1%
COc1cc(/C=C(\C#N)c2ccc3c(c2)OCO3)cc(OC)c1OC	114%	98.9%	90.2%	97.6%	97.5%	95.3%	108%	96.5%	100%	67.1%	88.7%		96.5%	88.6%	87.2%	88.5%	92.2%		91.3%
N#C/C(=C\c1cccnc1Cl)c1ccc2c(c1)OCO2	102%	107%	98.9%	113%	112%	113%	115%	94%	98.3%	87.6%	101%	112%	93.7%	83.8%		89.3%	103%		107%
